Laboratory results published in US20230096528A1, “Pharmaceutical Composition for Treatment or Prevention of Multiple Inflammatory disorders” (priority 2019, published 2023).

Legend:
[1] = system: DSS-induced colitis in mice; assay: Dextran sulfate sodium (DSS)-induced colitis in mice (Example 3); assay type: in vivo
Description: This example provides the results of an in vivo study in a dextran sulfate sodium (DSS)-induced colitis in mice model. Inflammatory bowel diseases (IBD), mainly comprising ulcerative colitis and Crohn's Disease, are complex and multifactorial diseases with unknown etiology. To study human IBD mechanistically, a number of murine models of colitis have been developed. These models are tools to decipher underlying mechanisms of IBD pathogenesis as well as to evaluate potential therapeutics. […] Moreover, many existing IBD-approved drugs have been studied in this model to allow a comparison of new potential drug compounds as compared with existing drugs with approved IBD indications. […] mice were divided into 5 groups of 3-10 mice, provided with standard mouse chow diet ad libitum, and housed up to 5 per cage. Dexamethasone 21-phosphate disodium salt (DMS; Alfa Aesar Catalog #J64083-1G, Lot R02F035) (was used as a positive control. Hemoccult kits were obtained from Beckman (Hemoccult SENSA kit). Dextran sodium sulfate (DSS) reagent grade (MPI Catalog #160110, Lot #6046H, MW 36,000-50,000, CAS 9011-18-1) was supplemented in the water of certain groups to induced IBD-like symptoms. On day −3 treatment began prior to DSS delivery. On day 1 all mice were pre-weighed and given fresh 4-5% DSS in water every day for 5 days and water is then given for the remainder of the study to elicit disease. An additional control group was given water (no DSS) for the duration of the study (10 days). Body weight was measured daily, fecal blood status (hemoccult) was measured 3× per week, fecal consistency 3× per week and general health determined daily. Mice were sacrificed on day 10 and serum obtained for cytokine analysis and colon length and weight determined. There were two control groups of water only and DSS without drug treatment. There were two treatment groups at 69.3 mg/kg (n=10) bid and 23.1 mg/kg bid (n=10).

[2] = system: mouse model of acute lung injury; assay: Second modified acute lung injury plus hyperthermia study (Example 8); details: for Tolerability of three days of repeat dosing: mouse, in vivo
Procedure: Lung lavage fluid was measured and cytokine analysis. Statistics was one-way ANOVA followed by Tukey's multiple comparison post hoc test for data with normal distribution; Kruskal-Wallis test followed by Dunn's multiple comparison post hoc test for data with skewed distribution; and the ROUT method for identifying outliers. Control or drug administered for 3 days, then LPS at 50 μL of 1 mg/ml delivered intratracheally with a Penn Century needle where a core temperature of 39 C at 24 hours post LPS and then sacrifice to measure lung lavage fluid protein concentration and serum cytokine levels.
The same procedure was used as in Example 7. Starting three days before the induction of lung injury, groups of six CD-1 mice each were treated prophylactically with vehicle or 92.4 mg/kg denatonium acetate (DA) (administered by twice-daily (BID) oral gavage (PO)) or with 3 mg/kg DA (administered by once-daily (QD) intraperitoneal (IP) injection). On Day 0, lung injury was induced by intratracheal instillation with 50 μL of 1 mg/mL bacterial lipopolysaccharide (LPS), and hyperthermia was induced by placing the animals in a 39° C. incubator. On Day 1 (i.e., 24 hours after induction), animals were euthanized and bronchoalveolar lavage fluid (BALF) was collected. The BALF specimens were assessed for cytokine concentrations (using a multiplex bead-based assay), and protein levels, and neutrophil counts (by fluorescence-activated cell sorting (FACS)). Additionally, lungs were collected, fixed, stained with Masson's trichrome, and assessed histologically.

[3] = high-dose DA, no significant difference
[4] = oral 92.4 mg/kg BID, vs vehicle

Compound: CC(=O)[O-].CC[N+](CC)(CC(=O)Nc1c(C)cccc1C)Cc1ccccc1 [DA, denatonium acetate]
- Body weight at day 10 ([1]; 69.3 mg/kg BID, vs vehicle): significant effect against DSS-induced body weight loss
- Combined fecal score during the study period ([1]; DA treatment): significant main effect
- Fecal consistency score during the study period ([1]; DA treatment): significant main effect
- Fecal occult blood scores during the study period ([1]; DA treatment): significant main effect
- Colon length at day 10 [1, 3]: could counteract DSS-induced decrease
- Colon weight at day 10 [1, 3]: could counteract DSS-induced decrease
- Spleen weight at day 10 ([1]; high-dose DA, no significant effect): trend to counteract DSS-induced spleen weight loss
- Mice found dead on Day 1 ([2]; 92.4 mg/kg PO group, within 24 h after LPS instillation, also one vehicle-dosed, not attributed to test article): one
- BALF neutrophil counts (by FACS assay) ([2]; IP 3 mg/kg QD): nominal decreases
- BALF protein concentrations ([2]; IP 3 mg/kg QD): nominal (but nonsignificant) changes
- Number of 32 tested BALF cytokines significantly decreased compared to vehicle ([2]; IP 3 mg/kg QD): 10
- Severity of lung pathology (by histological scoring) ([2]; IP 3 mg/kg QD): nominal decreases
- G-CSF concentration in BALF ([2]; IP 3 mg/kg QD, vs vehicle): significant decreases
- IL2 concentration in BALF ([2]; IP 3 mg/kg QD, vs vehicle): significant decreases
- IL-3 concentration in BALF ([2]; IP 3 mg/kg QD, vs vehicle): significant decreases
- IL-4 concentration in BALF ([2]; IP 3 mg/kg QD, vs vehicle): significant decreases
- IL-13 concentration in BALF ([2]; IP 3 mg/kg QD, vs vehicle): significant decreases
- IP-10 concentration in BALF ([2]; IP 3 mg/kg QD, vs vehicle): significant decreases
- M-CSF concentration in BALF ([2]; IP 3 mg/kg QD, vs vehicle): significant decreases
- MCP-1 concentration in BALF ([2]; IP 3 mg/kg QD, vs vehicle): significant decreases
- MIG concentration in BALF ([2]; IP 3 mg/kg QD, vs vehicle): significant decreases
- eotaxin concentration in BALF ([2]; IP 3 mg/kg QD, vs vehicle): significant decreases
- Tolerability of three days of repeat dosing ([2]; ip, 3 mg/kg): well-tolerated
- Tolerability of three days of repeat dosing ([2]; po, 92.4 mg/kg): well-tolerated
- BALF neutrophil counts (by FACS assay) ([2]; oral 92.4 mg/kg BID): nominal decreases
- BALF protein concentrations ([2]; oral 92.4 mg/kg BID): nominal (but nonsignificant) changes
- Number of 32 tested BALF cytokines significantly decreased compared to vehicle ([2]; oral 92.4 mg/kg BID): 7
- Severity of lung pathology (by histological scoring) ([2]; oral 92.4 mg/kg BID): nominal decreases
- IL-2 concentration in BALF [2, 4]: significant decreases
- IL-3 concentration in BALF [2, 4]: significant decreases
- IL-10 concentration in BALF [2, 4]: significant decreases
- IL-13 concentration in BALF [2, 4]: significant decreases
- MCSF concentration in BALF [2, 4]: significant decreases
- MIG concentration in BALF [2, 4]: significant decreases
